Laboratory results taken from ChEMBL document CHEMBL1201862, “PubChem BioAssay data set” (2004).
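Tested at 5 concentrations; 48 h exposure; 96-well plates; endpoints linearly interpolated, else capped at highest concentration. Here, GI50 denotes the concentration required for 50% inhibition of growth.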 Calls of active or inactive are those of the source. No stated cut-off is given here; in the data, active = GI50 up to about 1.1 µM and inactive = higher.

Legend:
Assay in all cases: NCI tumour cell line growth inhibition, 48 h
Hs-578T = system: Hs-578T
Malme-3M = system: Malme-3M
COLO 205 = system: COLO 205
NCI-H226 = system: NCI-H226
NCI-H460 = system: NCI-H460
SK-MEL-28 = system: SK-MEL-28
UACC-257 = system: UACC-257
BT-549 = system: BT-549
MOLT-4 = system: MOLT-4
SNB-75 = system: SNB-75
UO-31 = system: UO-31
HCT-15 = system: HCT-15
OVCAR-5 = system: OVCAR-5
T47D = system: T47D
UACC-62 = system: UACC-62
HOP-62 = system: HOP-62
HCT-116 = system: HCT-116
NCI/ADR-RES = system: NCI/ADR-RES
RXF 393 = system: RXF 393
CAKI-1 = system: CAKI-1

SMILES | GI50 (Hs-578T) | GI50 (Malme-3M) | GI50 (COLO 205) | GI50 (NCI-H226) | GI50 (NCI-H460) | GI50 (SK-MEL-28) | GI50 (UACC-257) | GI50 (BT-549) | GI50 (MOLT-4) | GI50 (SNB-75) | GI50 (UO-31) | GI50 (HCT-15) [µM] | GI50 (OVCAR-5) | GI50 (T47D) | GI50 (UACC-62) | GI50 (HOP-62) | GI50 (HCT-116) | GI50 (NCI/ADR-RES) | GI50 (RXF 393) | GI50 (CAKI-1)
CN(C)Cc1cc(O)c(O)c(CN(C)C)c1 | > 100 µM (inactive) | 31.3 µM (inactive) | 34.7 µM (inactive) | 43.3 µM (inactive) | 21.4 µM (inactive) | 51.9 µM (inactive) | 17.3 µM (inactive) | 54 µM (inactive) | 27.9 µM (inactive) | 56.6 µM (inactive) | 25.9 µM (inactive) | 24.2 | 32.4 µM (inactive) | 49.9 µM (inactive) | 29.5 µM (inactive) | 37.2 µM (inactive) | 41.3 µM (inactive) | 19.3 µM (inactive) | 50.4 µM (inactive) | 34.4 µM (inactive)
CCOC(=O)C1=CC(C)(C(=O)OCC)Nc2c(nc(OC)n(C)c2=O)N1 (stereo unspecified) | > 10 µM (inactive) | > 10 µM (inactive) | > 10 µM (inactive) | > 10 µM (inactive) | > 10 µM (inactive) | > 10 µM (inactive) | > 10 µM (inactive) | > 10 µM (inactive) | > 10 µM (inactive) | > 10 µM (inactive) | > 10 µM (inactive) | > 10 | > 10 µM (inactive) | > 10 µM (inactive) |  | > 10 µM (inactive) | > 10 µM (inactive) | > 10 µM (inactive) | > 10 µM (inactive) | > 10 µM (inactive)
CNC1NC(=O)c2ccccc2N1Cc1ccc(F)cc1 (stereo unspecified) | > 100 µM (inactive) | > 100 µM (inactive) | > 100 µM (inactive) | > 100 µM (inactive) | > 100 µM (inactive) | > 100 µM (inactive) | > 100 µM (inactive) | > 100 µM (inactive) | > 100 µM (inactive) | > 100 µM (inactive) | 11.1 µM (inactive) | > 100 | > 100 µM (inactive) | > 100 µM (inactive) | > 100 µM (inactive) | > 100 µM (inactive) | > 100 µM (inactive) | > 100 µM (inactive) | > 100 µM (inactive) | > 100 µM (inactive)
O=C(O)CSC1=NC(=O)C2(NN1)c1ccccc1-c1ccccc12 | > 10 µM (inactive) | > 10 µM (inactive) | > 10 µM (inactive) | > 10 µM (inactive) | > 10 µM (inactive) | > 10 µM (inactive) | > 10 µM (inactive) | > 10 µM (inactive) | > 10 µM (inactive) | > 10 µM (inactive) | > 10 µM (inactive) | > 10 |  | > 10 µM (inactive) | > 10 µM (inactive) | > 10 µM (inactive) | > 10 µM (inactive) | > 10 µM (inactive) | > 10 µM (inactive) | > 10 µM (inactive)
O=C1c2ccccc2-n2c1nc1cc(Cl)ccc1c2=O | 20.2 µM (inactive) | 6.7 µM (inactive) | > 100 µM (inactive) | > 100 µM (inactive) | 30.3 µM (inactive) |  | 9.68 µM (inactive) | > 100 µM (inactive) | 11.9 µM (inactive) | 85.9 µM (inactive) | > 100 µM (inactive) | 21.2 | > 100 µM (inactive) | 0.807 µM (active) | 11.2 µM (inactive) | 81.7 µM (inactive) | > 100 µM (inactive) | > 100 µM (inactive) | 55.7 µM (inactive) | 36.8 µM (inactive)
CCOc1cc(NC(C)=O)ccc1C(=O)NN1C(=O)CSC1c1ccccc1 (stereo unspecified) | > 100 µM (inactive) | 86.3 µM (inactive) | 75 µM (inactive) | > 100 µM (inactive) | > 100 µM (inactive) | > 100 µM (inactive) | 63.8 µM (inactive) | 34.9 µM (inactive) | < 0.01 µM (active) | 95.3 µM (inactive) | 40.7 µM (inactive) | 60.3 | > 100 µM (inactive) | 25.7 µM (inactive) | 52 µM (inactive) | > 100 µM (inactive) | > 100 µM (inactive) | 35.7 µM (inactive) | 74.6 µM (inactive) | > 100 µM (inactive)
CC1=NN(c2ccccc2Cl)C2(C1)C(Cl)C(=O)N2c1nc2ccccc2s1 (stereo unspecified) | > 100 µM (inactive) | 92.5 µM (inactive) | 61.1 µM (inactive) | 50.5 µM (inactive) | 79.6 µM (inactive) |  | > 100 µM (inactive) | 54.6 µM (inactive) | 30 µM (inactive) | 20.8 µM (inactive) | 61.8 µM (inactive) | 44.3 | > 100 µM (inactive) | 44.3 µM (inactive) | 44.6 µM (inactive) | 29.2 µM (inactive) | 44.9 µM (inactive) | 65 µM (inactive) | 39.1 µM (inactive) | 50.2 µM (inactive)
COC(=O)c1cc(C)ccc1CC(Cc1ccc(C)cc1)C(=O)OC (stereo unspecified) | 21.2 µM (inactive) | 22 µM (inactive) | 14.8 µM (inactive) | > 47.4 µM (inactive) | 40.4 µM (inactive) | 67.1 µM (inactive) | 9.89 µM (inactive) | > 100 µM (inactive) | 5.01 µM (inactive) | 6.78 µM (inactive) | 17.1 µM (inactive) | 10.9 | 9.86 µM (inactive) | 30.8 µM (inactive) | > 100 µM (inactive) | > 100 µM (inactive) | 10.5 µM (inactive) | 23.7 µM (inactive) | 2.87 µM (inactive) | 36.6 µM (inactive)
COC(=O)[C@@H]1[C@H]2CC[C@]3(C)[C@@H](OC(C)=O)CC[C@H]3[C@@H]2CC[C@H]1C(C)=O | > 100 µM (inactive) | > 100 µM (inactive) | > 100 µM (inactive) | > 100 µM (inactive) | > 100 µM (inactive) | > 100 µM (inactive) | > 100 µM (inactive) | > 100 µM (inactive) | > 100 µM (inactive) | > 100 µM (inactive) | > 100 µM (inactive) | > 100 | > 100 µM (inactive) | > 100 µM (inactive) | > 100 µM (inactive) | > 100 µM (inactive) | > 100 µM (inactive) | > 100 µM (inactive) | > 100 µM (inactive) | > 100 µM (inactive)
Cc1nc(-c2ccc([N+](=O)[O-])cc2)cn2c1nc1ccccc12 | > 100 µM (inactive) | > 100 µM (inactive) | > 100 µM (inactive) | > 100 µM (inactive) | > 100 µM (inactive) | > 100 µM (inactive) | > 100 µM (inactive) | > 100 µM (inactive) | > 100 µM (inactive) | 24.6 µM (inactive) | > 100 µM (inactive) | > 100 | > 100 µM (inactive) | 8.81 µM (inactive) | 15.9 µM (inactive) | 36.5 µM (inactive) | > 100 µM (inactive) | > 100 µM (inactive) | 41.6 µM (inactive) | > 100 µM (inactive)
CC(C)CCOC(=O)NC(Nc1ccc(F)cc1)(C(F)(F)F)C(F)(F)F | > 100 µM (inactive) | > 100 µM (inactive) | 18.3 µM (inactive) | > 100 µM (inactive) | 41.3 µM (inactive) | > 100 µM (inactive) | > 100 µM (inactive) | 9.75 µM (inactive) | 19.1 µM (inactive) | > 100 µM (inactive) | 10.7 µM (inactive) | 1.68 | 97.3 µM (inactive) | 6.22 µM (inactive) | 0.279 µM (active) | 37.2 µM (inactive) | 65.9 µM (inactive) | 52.6 µM (inactive) | > 100 µM (inactive) | 19.5 µM (inactive)
O=C(NC(CO)CO)c1ccc2cc(C(=O)N3CC(CCl)c4ccc([N+](=O)[O-])cc43)[nH]c2c1 (stereo unspecified) | > 100 µM (inactive) | > 100 µM (inactive) | 50 µM (inactive) | > 100 µM (inactive) | > 100 µM (inactive) | > 100 µM (inactive) | > 100 µM (inactive) | > 100 µM (inactive) | > 100 µM (inactive) | > 100 µM (inactive) | > 100 µM (inactive) | > 100 | > 100 µM (inactive) | 0.619 µM (active) | > 100 µM (inactive) | > 100 µM (inactive) | > 100 µM (inactive) | > 100 µM (inactive) | > 100 µM (inactive) | > 100 µM (inactive)
CCOC(=O)C(C)c1nc2cc(F)c(N3CCOCC3)cc2[nH]c1=O (stereo unspecified) | > 100 µM (inactive) | > 100 µM (inactive) | > 100 µM (inactive) | > 100 µM (inactive) | 39.1 µM (inactive) | > 100 µM (inactive) | > 100 µM (inactive) | > 100 µM (inactive) | 85.9 µM (inactive) | > 100 µM (inactive) | > 100 µM (inactive) | > 100 | > 100 µM (inactive) | 51.9 µM (inactive) | > 100 µM (inactive) | > 100 µM (inactive) | > 100 µM (inactive) | > 100 µM (inactive) | > 100 µM (inactive) | > 100 µM (inactive)
CN(C)c1ccc(/C=N/NC(=S)Nc2ccccc2)cc1 | > 100 µM (inactive) | > 100 µM (inactive) | > 100 µM (inactive) | > 100 µM (inactive) | > 100 µM (inactive) | > 100 µM (inactive) | > 100 µM (inactive) | > 100 µM (inactive) | > 100 µM (inactive) | > 100 µM (inactive) | > 100 µM (inactive) | > 100 | > 100 µM (inactive) | > 100 µM (inactive) | > 100 µM (inactive) | 96.4 µM (inactive) | > 100 µM (inactive) | > 100 µM (inactive) | > 100 µM (inactive) | > 100 µM (inactive)
